Reference: publication PMC5681660, “Reduced hepatitis B and D viral entry using clinically applied drugs as novel inhibitors of the bile acid transporter NTCP” (Scientific Reports, 2017)
Where a name gives a salt, the structure may show the parent alone. Read-outs that look alike come from different tables or passages of the source.

What was measured:
human NTCP [1] = biological target: T1, human NTCP (Homo sapiens, UniProt Q14973); assay: Screening fluorescent competitive Myrcludex B-FITC binding assay (96-well, 10 µM drug)
T1 sequence (Q14973 1-349): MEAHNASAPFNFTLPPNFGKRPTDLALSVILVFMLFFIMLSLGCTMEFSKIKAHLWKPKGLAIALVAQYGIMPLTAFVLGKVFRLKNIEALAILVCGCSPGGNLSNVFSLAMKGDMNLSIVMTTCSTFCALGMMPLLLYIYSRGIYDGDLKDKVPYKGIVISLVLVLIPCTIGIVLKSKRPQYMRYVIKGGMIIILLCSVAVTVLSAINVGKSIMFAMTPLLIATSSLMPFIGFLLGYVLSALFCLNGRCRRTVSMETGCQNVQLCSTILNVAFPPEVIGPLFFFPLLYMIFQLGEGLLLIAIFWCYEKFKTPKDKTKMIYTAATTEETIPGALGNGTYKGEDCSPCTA

human NTCP [2] = biological target: T1, human NTCP; assay: Screening taurocholate uptake assay (96-well, [14C]taurocholate, 10 µM drug)
[3] = screen, 10 µM drug, Myrcludex B-FITC binding
[4] = combined ranking from functional and binding screening assays
[5] = screen, 10 µM drug, taurocholate uptake
[6] = Prestwick library screen, Myrcludex B-FITC binding, 10 µM drug
[7] = Prestwick library screen, taurocholate uptake, 10 µM drug
[8] = ranking score beside the functional and binding assay B-scores of the screen
[9] = Prestwick library screen, 10 µM drug, B-score of Myrcludex B-FITC binding
[10] = Prestwick library screen, 10 µM drug, B-score of taurocholate uptake
[11] = combined ranking from functional and binding assay B-scores

With `CN(N=O)C(=O)N[C@H]1C(O)O[C@H](CO)[C@@H](O)[C@@H]1O` (mixture of isomers) [Streptozotocin] the B-score binding assay (human NTCP [1]; [3]) was -0.654, the Ranking score (human NTCP [2]; [4]) was 307.444 and the B-score functional assay (human NTCP [2]; [5]) was -0.84.

`O=C(O)c1cccnc1Nc1cccc(C(F)(F)F)c1` [Niflumic acid] showed a B-score binding assay (human NTCP [1]; [6]) of -0.054, a B-score functional assay (human NTCP [2]; [7]) of 0.166 and a Ranking score (human NTCP [2]; [8]) of 675.036.

With `COCCCOc1ccnc(C[S+]([O-])c2nc3ccccc3[nH]2)c1C` (stereo not drawn) [Rabeprazole Sodium salt] the B-score binding assay (human NTCP [1]; [6]) was -0.144, the B-score functional assay (human NTCP [2]; [7]) was 1.371 and the Ranking score (human NTCP [2]; [8]) was 764.457.

`CCN(CC)CCOC(=O)C1(c2ccc([N+](=O)[O-])cc2)CCCC1.Cl` [Nitrocaramiphen hydrochloride] gave a B-score binding assay (human NTCP [1]; [9]) of 0.18, a B-score functional assay (human NTCP [2]; [10]) of 0.881 and a Ranking score (human NTCP [2]; [11]) of 904.838.

`COc1cc(C(=O)NC2CCCNC2)cc(OC)c1OC` (stereo not drawn) [Troxipide] gave a B-score binding assay (human NTCP [1]; [9]) of 2.726, a B-score functional assay (human NTCP [2]; [10]) of 0.286 and a Ranking score (human NTCP [2]; [11]) of 1019.78.

For `Cc1cc(C)nc([N-]S(=O)(=O)c2ccc(N)cc2)n1.[Na+]` [Sulfamethazine sodium salt], the B-score binding assay (human NTCP [1]; [6]) was 0.015, the B-score functional assay (human NTCP [2]; [7]) was 0.394 and the Ranking score (human NTCP [2]; [8]) was 760.788.

`COC(=O)Nc1nc2ccc([S+]([O-])c3ccccc3)cc2[nH]1` (stereo not drawn) [Oxfendazol] was tested, and the B-score binding assay (human NTCP [1]; [9]) was 1.363, the B-score functional assay (human NTCP [2]; [10]) was 0.699 and the Ranking score (human NTCP [2]; [11]) was 1042.44.

In the case of `CCCCc1ccc2[nH]c(NC(=O)OC)nc2c1` [Parbendazole], the B-score binding assay (human NTCP [1]; [9]) is reported as 0.33, the B-score functional assay (human NTCP [2]; [10]) is reported as 1.481 and the Ranking score (human NTCP [2]; [11]) is reported as 989.697.

Compound `CC1(C)O[C@@H]2[C@@H](CO[C@@]3(COS(N)(=O)=O)OC(C)(C)O[C@@H]23)O1` [Topiramate] has a B-score binding assay (human NTCP [1]; [6]) of -0.268, a B-score functional assay (human NTCP [2]; [7]) of 1.004 and a Ranking score (human NTCP [2]; [8]) of 700.689.

In the case of `CC(C)OC(=O)CCC/C=C\C[C@@H]1[C@@H](CC[C@@H](O)CCc2ccccc2)[C@H](O)C[C@@H]1O` [Latanoprost], the B-score binding assay (human NTCP [1]; [3]) is reported as 0.817, the Ranking score (human NTCP [2]; [4]) is reported as 347.885 and the B-score functional assay (human NTCP [2]; [5]) is reported as -2.131.

In the case of `C[C@@]12N[C@@H](Cc3ccccc31)c1ccccc12.O=C(O)/C=C\C(=O)O` [(-)-MK 801 hydrogen maleate], the B-score binding assay (human NTCP [1]; [6]) is reported as 0.115, the B-score functional assay (human NTCP [2]; [7]) is reported as -0.004 and the Ranking score (human NTCP [2]; [8]) is reported as 690.814.

`CCOc1nc2cccc(C(=O)O)c2n1Cc1ccc(-c2ccccc2-c2nnn[nH]2)cc1` [Candesartan] gave a B-score binding assay (human NTCP [1]; [6]) of 0.128, a B-score functional assay (human NTCP [2]; [7]) of 0.287 and a Ranking score (human NTCP [2]; [8]) of 798.474.

`C[C@]12COC(=O)C[C@@H]1CC[C@@H]1[C@@H]2CC[C@@]2(C)[C@H]1CC[C@]2(C)O` [Oxandrolone] was tested, and the B-score binding assay (human NTCP [1]) was 1.484, the B-score functional assay (human NTCP [2]) was -0.501 and the Ranking score (human NTCP [2]) was 649.785.

Compound `Nc1nc(=O)c2nc(CNc3ccc(C(=O)N[C@@H](CCC(=O)O)C(=O)O)cc3)cnc2[nH]1` [Folic acid] has a B-score binding assay (human NTCP [1]; [3]) of -0.117, a Ranking score (human NTCP [2]; [4]) of 436.211 and a B-score functional assay (human NTCP [2]; [5]) of -0.57.

Work on `CCCCOc1ccc(OCCCN2CCOCC2)cc1` [Pramoxine hydrochloride] yielded a B-score binding assay (human NTCP [1]; [9]) of 0.619, a B-score functional assay (human NTCP [2]; [10]) of 1.223 and a Ranking score (human NTCP [2]; [11]) of 1022.18.

In the case of `CCCC[N+]1(C)[C@@H]2C[C@@H](OC(=O)[C@H](CO)c3ccccc3)C[C@H]1[C@@H]1O[C@@H]12.[Br-]` (stereo partly drawn) [Butylscopolammonium (n-) bromide], the B-score binding assay (human NTCP [1]; [3]) is reported as -0.108, the Ranking score (human NTCP [2]; [4]) is reported as 409.241 and the B-score functional assay (human NTCP [2]; [5]) is reported as -0.739.

`CC(C)(Oc1ccc(CCNC(=O)c2ccc(Cl)cc2)cc1)C(=O)O` [Bezafibrate] showed a B-score binding assay (human NTCP [1]; [3]) of 0.184, a Ranking score (human NTCP [2]; [4]) of 430.871 and a B-score functional assay (human NTCP [2]; [5]) of -1.123.

For `CCCN1C[C@H](CSC)C[C@@H]2c3cccc4[nH]cc(c34)C[C@H]21` [Pergolide mesylate], the B-score binding assay (human NTCP [1]; [6]) was 0.514, the B-score functional assay (human NTCP [2]; [7]) was -0.089 and the Ranking score (human NTCP [2]; [8]) was 708.625.

Compound Eburnamonine (-) has a B-score binding assay (human NTCP [1]; [3]) of -0.173, a Ranking score (human NTCP [2]; [4]) of 349.983 and a B-score functional assay (human NTCP [2]; [5]) of -1.058.

`CC(=O)O[C@H]1C[C@@H]2CC[C@@H]3[C@H](CC[C@@]4(C)[C@H]3C[C@H]([N+]3(C)CCCCC3)[C@@H]4OC(C)=O)[C@@]2(C)C[C@@H]1[N+]1(C)CCCCC1` [Pancuronium bromide] showed a B-score binding assay (human NTCP [1]; [6]) of -0.008, a B-score functional assay (human NTCP [2]; [7]) of 0.614 and a Ranking score (human NTCP [2]; [8]) of 767.5.

Compound `C(#CCN1CCCC1)CN1CCCC1.Cl.Cl` [Tremorine dihydrochloride] has a B-score binding assay (human NTCP [1]; [3]) of 1.525, a Ranking score (human NTCP [2]; [4]) of 382.832 and a B-score functional assay (human NTCP [2]; [5]) of -2.034.

`COC(=O)[C@H](c1ccccc1Cl)N1CCc2sccc2C1` [Clopidogrel] was tested, and the B-score binding assay (human NTCP [1]; [3]) was -1.412, the Ranking score (human NTCP [2]; [4]) was 419.199 and the B-score functional assay (human NTCP [2]; [5]) was 0.915.

`O=C(O)CN(CCN(CC(=O)O)CC(=O)O)CCN(CC(=O)O)CC(=O)O` [Pentetic acid] was tested, and the B-score binding assay (human NTCP [1]; [3]) was -0.525, the Ranking score (human NTCP [2]; [4]) was 406.409 and the B-score functional assay (human NTCP [2]; [5]) was -0.313.

With `c1ccc2[nH]c(-c3cscn3)nc2c1` [Tiabendazole] the B-score binding assay (human NTCP [1]; [9]) was 0.306, the B-score functional assay (human NTCP [2]; [10]) was 0.849 and the Ranking score (human NTCP [2]; [11]) was 925.084.

With `CCc1c(C)[nH]c2c1C(=O)C(CN1CCOCC1)CC2` (stereo not drawn) [Molindone hydrochloride] the B-score binding assay (human NTCP [1]; [3]) was 0.009, the Ranking score (human NTCP [2]; [4]) was 412.337 and the B-score functional assay (human NTCP [2]; [5]) was -0.958.

Work on `CCCC1C(=O)N2C(N(C)C)=Nc3ccc(C)cc3N2C1=O` (stereo not drawn) [Azapropazone] yielded a B-score binding assay (human NTCP [1]) of -1.852, a B-score functional assay (human NTCP [2]) of -0.788 and a Ranking score (human NTCP [2]) of 190.672.

For `Nc1ccc(S(=O)(=O)Nc2ccccn2)cc1` [Sulfapyridine], the B-score binding assay (human NTCP [1]; [3]) was -1.889, the Ranking score (human NTCP [2]; [4]) was 331.804 and the B-score functional assay (human NTCP [2]; [5]) was 0.557.

Compound `CN(C)CCC=C1c2ccccc2COc2ccccc21` [Doxepin hydrochloride] has a B-score binding assay (human NTCP [1]; [3]) of 0.002, a Ranking score (human NTCP [2]; [4]) of 385.759 and a B-score functional assay (human NTCP [2]; [5]) of -1.158.

Compound `COc1cc([C@@H]2c3cc4c(cc3[C@@H](O[C@@H]3O[C@@H]5CO[C@@H](C)O[C@H]5[C@H](O)[C@H]3O)[C@H]3COC(=O)[C@H]23)OCO4)cc(OC)c1O` [Etoposide] has a B-score binding assay (human NTCP [1]; [3]) of 0.046, a Ranking score (human NTCP [2]; [4]) of 333.467 and a B-score functional assay (human NTCP [2]; [5]) of -1.678.

`C[N+](C)(C)CCCCCC[N+](C)(C)C.O.O.[Br-].[Br-]` [Hexamethonium dibromide dihydrate] gave a B-score binding assay (human NTCP [1]; [6]) of 0.191, a B-score functional assay (human NTCP [2]; [7]) of -0.02 and a Ranking score (human NTCP [2]; [8]) of 696.207.

Compound `CC(=O)O[C@]1(C(C)=O)CC[C@H]2[C@@H]3C=C(C)C4=CC(=O)CC[C@]4(C)[C@H]3CC[C@@]21C` [Megestrol acetate] has a B-score binding assay (human NTCP [1]; [9]) of 0.319, a B-score functional assay (human NTCP [2]; [10]) of 0.476 and a Ranking score (human NTCP [2]; [11]) of 869.581.

Work on `C=CCOc1ccccc1OCC(O)CNC(C)C` (stereo not drawn) [Oxprenolol hydrochloride] yielded a B-score binding assay (human NTCP [1]; [3]) of -0.666, a Ranking score (human NTCP [2]; [4]) of 434.185 and a B-score functional assay (human NTCP [2]; [5]) of -0.061.

`CCCSc1ccc2nc(NC(=O)OC)[nH]c2c1` [Albendazole] was tested, and the B-score binding assay (human NTCP [1]) was 0.993, the B-score functional assay (human NTCP [2]) was -0.13 and the Ranking score (human NTCP [2]) was 731.855.

Work on `CC=CC1=C(C(=O)O)N2C(=O)[C@@H](NC(=O)[C@H](N)c3ccc(O)cc3)[C@H]2SC1` [Cefprozil] yielded a B-score binding assay (human NTCP [1]; [3]) of -1.441, a Ranking score (human NTCP [2]; [4]) of 364.678 and a B-score functional assay (human NTCP [2]; [5]) of 0.201.

For `Nc1nc(O)c2ncn(COC(CO)CO)c2n1` [Ganciclovir], the B-score binding assay (human NTCP [1]; [3]) was 0.144, the Ranking score (human NTCP [2]; [4]) was 278.51 and the B-score functional assay (human NTCP [2]; [5]) was -2.412.
